Here are results for 18 compounds from patent US20240083857A1, “2-Methyl-Quinazolines” (Bayer Pharma Aktiengesellschaft, priority 2017, published 2024).

Test [1] deals with K-Ras^G12C : hSOS1 interaction (Homo sapiens, UniProt Q07889). Kind of test: Biochemical assay 1: K-Ras^G12C interaction assay with hSOS1 (HTRF). The test is classed as binding. Particulars: read-out: Assay 1 (KRAS-SOS Interaction) activity expressed as IC50. A general note: Time-resolved FRET reads energy transfer from a long-lived donor to a nearby acceptor.
Test [2] has as its target human SOS1 (nucleotide exchange of K-Ras^G12C) (Homo sapiens, UniProt Q07889). Kind of test: Biochemical assay 2: K-Ras^G12C activation assay by hSOS1 at high GTP concentration (HTRF). The conditions noted are these: high GTP; for IC50: read-out: Assay 2 (KRAS-Activation by SOS high GTP) activity expressed as IC50.

Regarding `COc1cc2nc(C)nc(NC(C)c3ccc(-c4cnn(CCN5CCCC5)c4)s3)c2cc1OC` (stereo not drawn) [Example 220, 6,7-dimethoxy-2-methyl-N-[1-(5-{1-[2-(pyrrolidin-1-yl)ethyl]-1H-pyrazol-4-yl}thiophen-2-yl)ethyl]quinazolin-4-amine], the 50% inhibitory concentration (IC50) – broadly, the concentration that gives 50% inhibition – in test [1] is 379 nM; in test [2], 381 nM.

Consider `COc1cc2nc(C)nc(NC(C)c3ccc(F)c4[nH]ncc34)c2cc1OC` (stereo not drawn) [Example 5, N-[1-(7-fluoro-1H-indazol-4-yl)ethyl]-6,7-dimethoxy-2-methylquinazolin-4-amine], for which the values for the half-inhibitory concentration (IC50) in test [1] and in test [2] were 1710 nM and 1300 nM, respectively.

Regarding `COc1cc2nc(C)nc(NC(C)c3csc(-c4cnn(CCO)c4)c3)c2cc1OC` (stereo not drawn) [Example 251, 2-[4-(4-{1-[(6,7-dimethoxy-2-methylquinazolin-4-yl)amino]ethyl}thiophen-2-yl)-1H-pyrazol-1-yl]ethanol], the IC50 is 4570 nM in test [1] and 5840 nM in test [2].

Regarding `COc1cc2nc(C)nc(NC(C)c3cccc4cccnc34)c2cc1OC` (stereo not drawn) [Example 217, 6,7-dimethoxy-2-methyl-N-[1-(quinolin-8-yl)ethyl]quinazolin-4-amine], the IC50 in test [1] came out at 8800 nM. Moreover, the inhibition (usually the relative decrease from the control value, in per cent) at 20 µM in test [2] (read-out: Assay 2 (KRAS-Activation by SOS high GTP) activity expressed as % inhibition at 20 μM, at 20 μM) worked out at 50%.

For `COc1cc2nc(C)nc(N[C@H](C)c3cccc(Br)c3)c2cc1OC` [Example 191, N-[(1R)-1-(3-bromophenyl)ethyl]-6,7-dimethoxy-2-methylquinazolin-4-amine], the IC50 in test [1] was found to be 174 nM; in test [2], 245 nM.

Consider `Cc1nc(N[C@H](C)c2cccc3ccccc23)c2ccccc2n1` [Example 186, 2-methyl-N-[(1R)-1-(naphthalen-1-yl)ethyl]quinazolin-4-amine], for which the IC50 in test [1] turned out to be 9940 nM; in test [2], 3310 nM.

Take `COc1cc2nc(C)nc(NC(C)c3ccc(-c4ccccc4CN4CCC(N(C)C)C4)s3)c2cc1OC` (stereo not drawn) [Example 238, N-{1-[5-(2-{[3-(dimethylamino)pyrrolidin-1-yl]methyl}phenyl)thiophen-2-yl]ethyl}-6,7-dimethoxy-2-methylquinazolin-4-amine]: the results for the IC50 in test [1] and in test [2] were 81.6 nM and 217 nM, respectively.

As to `COc1cc2nc(C)nc(N[C@H](C)c3cccc(C(N)=O)c3)c2cc1OC` [Example 199, 3-{(1R)-1-[(6,7-dimethoxy-2-methylquinazolin-4-yl)amino]ethyl}benzamide], the 50% inhibitory concentration (IC50) worked out at 1730 nM in test [1] and 1420 nM in test [2].

On to `COc1cc2nc(C)nc(NC(C)c3csc(-c4cnc5n4CCC5)c3)c2cc1OC` (stereo not drawn) [Example 253, N-{1-[5-(6,7-dihydro-5H-pyrrolo[1,2-a]imidazol-3-yl)thiophen-3-yl]ethyl}-6,7-dimethoxy-2-methylquinazolin-4-amine], for which the IC50 in test [1] is 1310 nM; in test [2], 2330 nM.

For the compound `COC(=O)c1ccccc1-c1ccc(C(C)Nc2nc(C)nc3cc(OC)c(OC)cc23)s1` (stereo not drawn) [Example 178, methyl 2-(5-{1-[(6,7-dimethoxy-2-methylquinazolin-4-yl)amino]ethyl}thiophen-2-yl)benzoate], the IC50 in test [1] worked out at 1430 nM; in test [2], 5110 nM.

Turning to `COc1cc2nc(C)nc(NC(C)c3ccc(-c4cccc5[nH]ncc45)s3)c2cc1OC` (stereo not drawn) [Example 247, N-{1-[5-(1H-indazol-4-yl)thiophen-2-yl]ethyl}-6,7-dimethoxy-2-methylquinazolin-4-amine], the figures for the IC50 in test [1] and in test [2] were 591 nM and 867 nM, respectively.

On to `CNCc1ccccc1-c1ccc(C(C)Nc2nc(C)nc3cc(OC)c(OC)cc23)s1` (stereo not drawn) [Example 250, 6,7-dimethoxy-2-methyl-N-[1-(5-{2-[(methylamino)methyl]phenyl}thiophen-2-yl)ethyl]quinazolin-4-amine], for which the values for the 50% inhibitory concentration (IC50) in test [1] and in test [2] were 50 nM and 58.1 nM, respectively.

As for `COc1cc2nc(C)nc(NC(C)c3ccc(-c4ccccc4CO)s3)c2cc1OC` (stereo not drawn) [Example 244, [2-(5-{1-[(6,7-dimethoxy-2-methylquinazolin-4-yl)amino]ethyl}thiophen-2-yl)phenyl]methanol], the 50% inhibitory concentration (IC50) in test [1] is 282 nM; in test [2], 401 nM.

Consider `COc1cc2nc(C)nc(N[C@H](C)c3ccc(C)cc3)c2cc1OC` [Example 195, 6,7-dimethoxy-2-methyl-N-[(1R)-1-(4-methylphenyl)ethyl]quinazolin-4-amine], for which the half-maximal inhibitory concentration (IC50) in test [1] stood at 300 nM; in test [2], 635 nM.

In the case of `COc1cc2nc(C)nc(N[C@H](C)c3ccccc3)c2cc1OC` [Example 206, 6,7-dimethoxy-2-methyl-N-[(1R)-1-phenylethyl]quinazolin-4-amine], the IC50 in test [1] turned out to be 481 nM; in test [2], 1000 nM.

As for `COc1cc2nc(C)nc(NC(C)c3cccc4[nH]nc(C)c34)c2cc1OC` (stereo not drawn) [Example 13, 6,7-dimethoxy-2-methyl-N-[1-(3-methyl-1H-indazol-4-yl)ethyl]quinazolin-4-amine], the values for the concentration for half-maximal inhibition (IC50) in test [1] and in test [2] were 2020 nM and 2650 nM, respectively.

Take `COc1cc2nc(C)nc(NC(C)c3csc(Br)c3)c2cc1OC` (stereo not drawn) [Example 239, N-[1-(5-bromothiophen-3-yl)ethyl]-6,7-dimethoxy-2-methylquinazolin-4-amine]: the results for the half-inhibitory concentration (IC50) in test [1] and in test [2] were 7070 nM and 3830 nM, respectively.

Regarding `COc1cc2nc(C)nc(NC(C)c3cccc4cnn(C)c34)c2cc1OC` (stereo not drawn) [Example 10, 6,7-dimethoxy-2-methyl-N-[1-(1-methyl-1H-indazol-7-yl)ethyl]quinazolin-4-amine], the IC50 in test [1] came out at 1180 nM; in test [2] it was 1270 nM.
